{"source": "patent US7368582B2", "about": "“Amidomethyl-substituted 2-(4-sulfonylamino)-3-hydroxy-3,4-dihydro-2H-chromen-6-yl compounds, a process and intermediates for their production, and pharmaceutical compositions containing them” (Solvay Pharmaceuticals GmbH, priority 2003, dated 2008)", "key": {"[1]": {"system": "left atrium of rats' hearts", "test": "Functional refractory period prolongation on isolated left atria of rats' hearts in vitro", "design": "species or system rat (Sprague-Dawley)", "conditions": "10 μM", "procedure": "3. Investigation of the Functional Effectiveness of the Substances on the Atrium of Rats' Hearts in Vitro\nIn this test model it is determined to what extent the Kv 1.5-blocking substances of Formula I result in a prolongation of the functional refractory period in the left atrium of rats. The refractory period is the minimum possible elapsed time between the basic stimulus and additional stimulus in which a renewed contraction can be triggered. The extent of the prolongation of the functional refractory period is a measurement of the antiarrhythmic effectiveness of the substances according to the invention. The functional refractory period is determined by testing on the electrically stimulated preparation at what elapsed time from the preceding contraction a renewed contraction can be triggered by additional electrical stimuli.\nThe hearts were removed from freshly sacrificed rats (Sprague-Dawley, Charles-River, Germany). The left atria were isolated and fastened to force transducers in a temperature-controlled (30° C.), gasified (O2 95%, CO2 5%) organ bath which was filled with modified Tyrode solution (all values in mM: NaCl 137; KCl 2.7; CaCl2 1.8; MgCl2 0.8; NaHCO3 11.9; NaH2PO4 0.6; glucose 5). In order to trigger regular contractions, the preparations were electrically stimulated (rectangular pulses, pulse magnitude 3.5× threshold stimulus, pulse width 1.5 ms, frequency 1 Hz). Initially, the initial value of the functional refractory period was determined by applying extra pulses in addition to the basic stimulus, the elapsed time from the preceding basic stimulus being shortened until no further additional contraction could be triggered. Then the cumulative addition of increasing concentrations (0.1-10 μM) of the substances of Formula I took place at intervals of 20 min. each, the refractory period being determined again in each case 18 min. after the addition had taken place. Before the measurement, stock solutions of the test substances (3.2 and 0.32 mM in 100% DMSO) were prepared. In order to achieve the desired final concentrations of the substances (0.1-10 μM) in the organ bath (volume 100 ml), corresponding volumes of these stock solutions were then poured into the organ bath.\nIn each case the prolongation of the functional refractory period (FRP) in the left atrium of the rats' hearts in milliseconds observed after the addition of 10 μM of the respective substance of Formula I to the atrial preparations was given as characteristic variable."}, "[2]": {"system": "ventricle of guinea pigs", "test": "Functional effectiveness on guinea-pig hearts in vivo (ERP, QT, QRS, systolic blood pressure)", "design": "species or system guinea pig (Dunkin-Hartley)", "conditions": "1 min. after 10 μmole/kg i.v.; for QRS / QT / syst. blood pressure (change): guinea pigs; for syst. blood pressure (change): minus effects due to the vehicle, negative values indicate reduction; for ERP: ventricle of guinea pigs, negative values indicate shortening", "from_the_text": "4. Investigation of the Functional Effectiveness of the Substances on Guinea-Pig Hearts in Vivo\nIn the test model shown below, it was shown that the substances according to the invention at most have slight undesirable proarrhythmic effects on repolarization in the ventricle. To this end, the influence of the compounds of Formula I on the effective refractory period (ERP) and other influencing variables on guinea-pig hearts in vivo were investigated. In this test model, non-selective potassium channel blockers not in accordance with the invention, which also block HERG and/or KvLQT1 channels, result in undesirable prolongation of the ERP and the QT time on an electrocardiogram (═ECG). The QT time is likewise a measurement of the repolarization in the heart. Prolongations of both the ERP and the QT time, respectively, which are due to the substances were independently interpreted as indications of the risk of the occurrence of undesirable torsade-de-pointes arrhythmias. Furthermore, the QRS interval also was determined in each case from the ECG as a measurement of the ventricular rate of spread of stimulus. Even a prolongation of the QRS interval caused by a test substance is connected with an increased risk of undesirable pro-arrhythmic side-effects. Therefore in this test model the lack of an ERP and QT time prolongation signifies a low risk, but the occurrence of a relevant ERP and QT prolongation on the other hand signifies an elevated risk of undesirable pro-arrhythmic effects. Also the lack of a prolongation of the QRS interval which is due to the substances due to the substances of Formula I investigated indicates a low risk of undesirable pro-arrhythmic side-effects, since lack of QRS prolongation indicates an undisturbed spread of stimulus in the ventricle. Conversely, a QRS prolongation, which is typically triggered by Class I antiarrhythmic drugs indicates slowing of the conduction rate and may promote the occurrence of ventricular tachycardias to ventricular fibrillation.\nMale guinea pigs (Dunkin-Hartley from Charles River) were anaesthetized (ketamine 50 mg/kg, xylazine 10 mg/kg) and each of them was provided with a venous access via one jugular vein for administration of compounds of Formula I or a vehicle. A bipolar stimulation catheter was fed into the right ventricle of the guinea pigs via the other jugular vein (stimulation frequency 5 Hz). The arterial blood pressure was measured by a catheter located in the carotid artery which was connected to a Statham pressure transducer. The ECG was recorded via needle electrodes. The measured data were digitized via an analog/digital converter, recorded on a computer with suitable software (Ponemah Physiology Platform from Gould, USA) and printed out in parallel on a multichannel printer. After an equilibration period of 45 min., increasing doses of the compounds of Formula I or of the vehicle were administered intravenously (=i.v.) to the guinea pigs at 12-minute intervals. Before the first administration and in each case one minute after administration of increasing doses (0.1−max. 30 μmole/kg) of the substances of Formula I, the effective refractory period was measured. For this, after five normal stimuli in each case an additional pulse was applied and the elapsed time thereof from the preceding pulse was increased until a heart action was triggered. The observed time interval corresponds to the ERP of the ventricular myocardium.\nIn order to detect possible effects of the test substances on the blood pressure, in the same test model after each administration of substance the systolic and diastolic blood pressure was determined and compared with the previous blood-pressure level. The parameters were recorded automatically 1 and 8 min. after each administration of substance.\nOnly statistically significant effects were listed, with a t-test with a significance limit of P<0.05 being used for the statistical testing."}, "[3]": {"system": "hearts of anaesthetised cats", "test": "Atrial and ventricular fibrillation threshold in anaesthetised cats in vivo", "design": "species or system cat", "conditions": "anaesthetized cats, dose 30 μmol/kg i.v.", "from_the_text": "5. Investigation of the Functional Effectiveness of the Substances on the Hearts of Anaesthetised Cats in Vivo\nIn the test model shown below, it was shown that the substances according to the invention at most have a marked atrial-selective effect on the heart. After administration of the substances according to the invention, a significant increase in the atrial fibrillation threshold—i.e. the current intensity at which atrial fibrillation occurs—was observed. At the same time, on the other hand, the ventricular fibrillation threshold is influenced only minimally.\nLiving cats were anaesthetised with chloralose/urethane (50/300 mg/kg i.v.) and were ventilated with ambient air. Then, following thoracotomy, stimulating electrodes were attached to the right atrium and the ventricle. The atrial and ventricular fibrillation threshold was determined in known manner by administration of rectangular pulses of increasing current intensity until atrial or ventricular fibrillation occurred (for performance see in detail: Br. J. Pharmac. 17 (1961) 167; Hdb. exp. Pharmacol. XVI/3 (1975) 131; Pharmacol. Res. 25 Suppl. 2 (1992) 156). The test substances of Formula I were dissolved in propylene glycol (80%) and administered intravenously in increasing doses (5-30 μmol/kg). Atrial and ventricular fibrillation thresholds were then determined at 5-minute intervals in known manner after the addition of the respective dose. The increase in the respective fibrillation threshold due to the substances investigated was expressed in percent of the value before administration of substance, i.e. a doubling of the fibrillation threshold corresponds to an increase of 100%."}, "[4]": {"target": "T1, Kv 1.3-potassium channel (Homo sapiens, UniProt P22001)", "T1 construct": "expressed in transfected cells; host or cells: CHO cells, stably transfected with the Kv 1.3 plasmid using DMRIE-C", "T1 sequence (P22001 whole entry)": "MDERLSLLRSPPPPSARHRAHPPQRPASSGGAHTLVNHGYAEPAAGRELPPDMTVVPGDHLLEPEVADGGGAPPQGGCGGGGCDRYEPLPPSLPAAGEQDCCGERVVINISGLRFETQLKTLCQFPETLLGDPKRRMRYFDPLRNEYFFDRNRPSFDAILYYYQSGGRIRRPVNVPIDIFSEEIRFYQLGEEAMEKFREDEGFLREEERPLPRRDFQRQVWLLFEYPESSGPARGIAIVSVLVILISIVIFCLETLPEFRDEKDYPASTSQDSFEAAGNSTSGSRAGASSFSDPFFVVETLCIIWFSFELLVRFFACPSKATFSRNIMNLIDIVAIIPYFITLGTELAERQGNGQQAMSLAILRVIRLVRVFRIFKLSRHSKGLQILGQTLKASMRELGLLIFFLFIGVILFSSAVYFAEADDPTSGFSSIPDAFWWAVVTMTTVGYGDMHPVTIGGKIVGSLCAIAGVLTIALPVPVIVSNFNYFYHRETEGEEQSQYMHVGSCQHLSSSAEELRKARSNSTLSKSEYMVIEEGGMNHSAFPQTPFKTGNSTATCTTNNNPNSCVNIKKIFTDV", "test": "In-vitro Kv 1.3-potassium channel-blocking effect (membrane potential-sensitive fluorescent dye in transfected CHO cells)", "format": "cell-based", "conditions": "10 μM test substance; CHO cells transfected with Kv 1.3; relative to reference margatoxin", "from_the_text": "2. In-Vitro Investigation of the Kv 1.3-Potassium Channel-Blocking Effect of the Substances\nIn this test model, known oocytes of the Chinese hamster (═CHO) are used which are stably transfected with the Kv 1.3-potassium channel. The blockade of the cell-inherent Kv 1.3-potassium channel activity in the transfected cells is accompanied by a positive shift in the membrane potential from approx. −40 mV to −30 mV, whereas in the wild-type CHO cells investigated in parallel no significant shift in the membrane potential is triggered. A change in the membrane potential is thus connected to the reduction in the Kv 1.3-potassium channel activity. By blocking the Kv 1.3-potassium channels e.g. with substances of Formula I and the resulting change in the membrane potential, an accumulation of a membrane potential-sensitive fluorescent dye in intracellular compartments of the oocytes and ultimately increasing fluorescence occurs. The change in the membrane potential of the oocytes is therefore measured indirectly via the increase in fluorescence of the membrane potential-senstive dyes.\nThe cells were transfected with the Kv 1.3 plasmid in known manner with a commercially obtainable transfection reagent (DMRIE-C from Gibco BRL, Germany). The successful transfection was verified by immunofluorescence and by “patch-clamp” investigations of the potassium ion current. The fluorescence measurements were performed on a Tecan Safire fluorescence reader from Tecan, Germany. In each case, the increase in the fluorescent intensity caused by the blockade of the Kv 1.3-potassium channels in the oocytes with substances of Formula I in a concentration of 10 μM was determined as characteristic variable. The increase in the fluorescent intensity was given in each case in percent (%) compared with an increase in the fluorescent intensity caused by the reference substance margatoxin. Margatoxin is known as a selective Kv 1.3-potassium channel blocker (see e.g. M. Garcia-Calvo et al., J. Biol. Chem. 268 (1993) 18866-18874)."}, "[5]": {"conditions": "percent of value before administration"}}, "data": [{"smiles": "CCc1ccc(S(=O)(=O)NC2c3cc(CC(=O)NC4CCCc5ccccc54)ccc3OC(C)(C)C2O)cc1", "note": "(centres unmarked) [Example 1, 2-(4-{[(4-Ethylphenyl)sulfonyl]amino}-3-hydroxy-2,2-dimethyl-3,4-dihydro-2H-chromen-6-yl)-N-1,2,3,4-tetrahydronaphth-1-yl acetamide]", "values": [{"measurement": "FRP prolongation", "setting": "[1]", "result": 15, "unit": "ms"}, {"measurement": "QRS", "setting": "[2]", "result": "n.s."}, {"measurement": "QT", "setting": "[2]", "result": "n.s."}, {"measurement": "syst. blood pressure (change)", "setting": "[2]", "result": "n.s."}, {"measurement": "ERP", "setting": "[2]", "result": "n.s."}, {"measurement": "Selectivity factor (AFT:VFT)", "setting": "[3]", "result": 3}, {"measurement": "AFT (increase in the atrial fibrillation threshold)", "setting": "[3]; [5]", "result": 66, "unit": "%"}, {"measurement": "VFT (increase in the ventricular fibrillation threshold)", "setting": "[3]; [5]", "result": 22, "unit": "%"}]}, {"smiles": "CCc1ccc(S(=O)(=O)N[C@@H]2c3cc(CC(=O)NCc4ccccc4)ccc3OC(C)(C)[C@H]2O)cc1", "note": "[Example 11]", "values": [{"measurement": "Increase in the fluorescent intensity (% margatoxin)", "setting": "[4]", "result": 99, "unit": "% margatoxin"}, {"measurement": "FRP prolongation", "setting": "[1]", "result": 24, "unit": "ms"}, {"measurement": "QRS", "setting": "[2]", "result": "n.s."}, {"measurement": "QT", "setting": "[2]", "result": "n.s."}, {"measurement": "syst. blood pressure (change)", "setting": "[2]", "result": "n.s."}, {"measurement": "ERP", "setting": "[2]", "result": "n.s."}]}]}
